According to ChEMBL document CHEMBL3507680, “University of Dundee, Gates Library screen for HepG2 cell viability”:

Assay: Human HepG2 cell viability assay in 384 well format
Format: toxicity, cell-based
Parameters: dose 125 nL, time 70.5 hour; cytotoxicity at 70.5 h: concentration not given beside the values
Details: HepG2 cells, read-out: Inhibition

Row | Structure (SMILES) | cytotoxicity at 70.5 h [%]
1 | Cc1ccc(C(CNC(=O)NCc2ccccn2)N2CCOCC2)o1 (stereo not drawn) | 13.1
2 | O=C1C(NCc2nnc3n2CCCC3)CCCN1c1ccccc1 (stereo not drawn) | -7.11
3 | Cn1cc(CC2CCN(C(=O)NCc3cccc(C(N)=O)c3)C2)cn1 (stereo not drawn) | -13.1
4 | CS(=O)(=O)NCC1CCCN(C(=O)COCC2CC2)C1 (stereo not drawn) | -22.4
5 | Cc1ccccc1OCC(=O)N1CCCC(CNS(C)(=O)=O)C1 (stereo not drawn) | -5.65
6 | O=C(NCc1nn(-c2ccccc2)c2c1CCC2)C1CC1 | -3.11
7 | CCn1ccnc1CN1CCN(CC(O)CN2CCOCC2)CC1 (stereo not drawn) | -15.7
8 | Cn1ccnc1CN1CCN(CC(O)c2ccccc2)CC1 (stereo not drawn) | -12.2
9 | CCc1ocnc1C(=O)N1CCCC1c1noc(C(C)C)n1 (stereo not drawn) | -11
10 | COC(=O)NCC(=O)NCc1nn(-c2ccccc2)c2c1CCC2 | -4.34
11 | CCOc1cccc(CNC(=O)N2CCC(Cc3cnn(C)c3)C2)c1 (stereo not drawn) | -13.7
12 | CCOc1ccccc1CNC(=O)N1CCC(Cc2cnn(C)c2)C1 (stereo not drawn) | 7.83
13 | CS(=O)(=O)NC1CCCN(C(=O)COCc2ccccc2)C1 (stereo not drawn) | -10.6
14 | CC(O)CN1CCC(CNCc2ccccc2F)CC1 (stereo not drawn) | -1.41
15 | CC(O)CN1CCC(CNCc2ccccc2C(F)(F)F)CC1 (stereo not drawn) | 13.9
16 | CCc1ocnc1C(=O)N1CCCC1c1noc(C)n1 (stereo not drawn) | -5.19
17 | Cc1cnn(CC2CCCN2Cc2c(C)noc2C)c1 (stereo not drawn) | -3.04
18 | CCc1nc(C2CCCN2C(=O)c2cnns2)no1 (stereo not drawn) | -8.27
19 | Cc1nc(C)n(C2CCCN(C(=O)c3cncnc3C)C2)n1 (stereo not drawn) | 2.45
20 | Cc1ccc(C(C)C(=O)N2CCCN(Cc3cscn3)CC2)cc1 (stereo not drawn) | 5.25

Row | Structure (SMILES) | cytotoxicity at 70.5 h [%]
21 | O=C(Cc1ccccc1Cl)N1CCN(CC(O)COCCO)CC1 (stereo not drawn) | 1.21
22 | CCn1ccnc1CN1CCCN(C(=O)c2ccnc(C)n2)CC1 | 14.4
23 | Cc1ncsc1C(=O)NCc1ccnc(N2CCN(C)CC2)c1 | -7.54
24 | CCN(CC)c1ccc(C(=O)N2CCC(c3nc(C)no3)CC2)cn1 | -7.84
25 | NC(=O)Cn1cc(NC(=O)N2CCN(c3ccccc3)CC2)cn1 | -12.6
26 | Cc1noc(C2CCN(C(=O)c3ccc(C(F)(F)F)nc3)CC2)n1 | -5.24
27 | NC(=O)Cn1cc(NC(=O)N2CCSCC2)cn1 | 15.3
28 | Cc1nc(CN2CCN(C(C)c3nc(C(C)C)no3)CC2)oc1C (stereo not drawn) | -0.487
29 | Cc1cnn(CC2CN(CC(=O)Nc3nccs3)CCO2)c1 (stereo not drawn) | -2.45
30 | Cc1cnn(CC2CN(CC(=O)Nc3nncs3)CCO2)c1 (stereo not drawn) | -1.53
31 | CCOCC(O)CN1CCN(C(=O)Cc2cccc(Cl)c2)CC1 (stereo not drawn) | -5.95
32 | Cc1nc2cc(=O)[nH]n2c(C)c1CC(=O)NCc1ccc(C#N)cc1 | -0.462
33 | CNc1cc(N2CCCC2CNCc2csc(C)n2)ncn1 (stereo not drawn) | 6.11
34 | Cc1nc(C)n(CC2CCCCN2CCc2ccncc2)n1 (stereo not drawn) | 16.8
35 | CC(C)(C)c1n[nH]c(C2CN(C(=O)CCc3cccs3)CCO2)n1 (stereo not drawn) | -8.77
36 | CCCc1n[nH]c(C2CN(C(=O)CCc3cscn3)CCO2)n1 (stereo not drawn) | -1.57
37 | Cc1noc(C(C)N2CCN(Cc3nc(C)c(C)o3)CC2)n1 (stereo not drawn) | -3.69
38 | Cc1cc(C)n(CC2CCCN2CCS(C)(=O)=O)n1 (stereo not drawn) | -9.56
39 | CCn1ccnc1CN1CCCN(C(=O)c2ccnn2C)CC1 | -3.84
40 | CCCN1CCCC1Cn1nc(C)cc1C (stereo not drawn) | -3.07

Row | Structure (SMILES) | cytotoxicity at 70.5 h [%]
41 | CCc1ccc(C(=O)N2CCCC(n3nc(C)nc3C)C2)o1 (stereo not drawn) | 13.2
42 | CC(Cc1ccco1)NC(=O)Nc1cccnc1 (stereo not drawn) | 2.87
43 | COc1ccccc1OCCNCc1c(C(C)C)nn(C)c1N(C)C | 34.1
44 | Cc1nc(C2CCCN2CC(=O)NCCOc2cccc(F)c2)no1 (stereo not drawn) | 19.2
45 | O=C(c1cccnc1N1CCOCC1)N1CCCC(n2cncn2)C1 (stereo not drawn) | 18.2
46 | CCc1nc(CC(=O)N2CCn3c(C)nnc3C2)cs1 | -6.05
47 | COc1cc(CNCCc2cnn(C)c2)cc(OC)c1OC | 21.4
48 | CC(C)c1nn(C)c(N(C)C)c1CNCc1cccnc1N(C)C | 0.645
49 | Cc1cc(C)c(CNC(=O)NCC2CCCOC2)c(=O)[nH]1 (stereo not drawn) | -11.1
50 | Cc1nc(C)n(CC2CCCN(CC(=O)Nc3nnc(C)s3)C2)n1 (stereo not drawn) | 17.5
51 | Cc1nc(C)n(CC2CCCN(CC(=O)Nc3cc(C)on3)C2)n1 (stereo not drawn) | -2.38
52 | CC(C)c1nnc2n1CCN(C(=O)Cc1csc(C(C)(C)C)n1)C2 | -8.69
53 | CC(=O)c1ccc(OCC(=O)NS(=O)(=O)c2cccnc2)cc1 | 17.6
54 | Cc1nnc2n1CCN(C(=O)c1cc(Cl)c(Br)[nH]1)C2 | -2.93
55 | Cc1nc(CC(=O)N2CCn3c(nnc3C(C)C)C2)cs1 | -2.25
56 | CC(C)c1ccc(OCC(=O)NS(=O)(=O)c2cccnc2)cc1 | -0.457
57 | Cc1cc(OCC(=O)NS(=O)(=O)c2cccnc2)ccc1Cl | -2.82
58 | CC(C)c1nn(C)c(N(C)C)c1CNCc1ccccc1CO | 0.684
